Key:
[1] = hygroscopicity test of polymorphs (Chinese Pharmacopoeia 2010 edition, Appendix XIX J); assay type: physicochemical; details: 25° C.±1° C., saturated ammonium sulfate solution, 24 h
Experimental: The test was performed according to the guiding principles of drug's hygroscopic test (Chinese Pharmacopoeia 2010 edition, Appendix XIX J).
1. Take 4 dry glass weighing bottles with lids (60 mm of the outer diameter and 30 mm of the height). On the day before the test, the bottles were placed in a glass dryer (“constant temperature and humidity dryer”) where a saturated ammonium sulfate solution was placed, and the glass dryer was placed in the bottom of a constant temperature and humidity box at 25° C.±1° C.
2. After each empty weighing bottle together with its lid were placed in the “constant temperature and humidity dryer” for 24 hours, stabilize precisely the weight of each unit by a set (one weighing bottle+its lid), recorded as m1.
3. A polymorph II sample was taken and tiled in a glass weighing bottle which had been weighed (the thickness of a sample was about 1 mm), and the bottle was covered, the weight of each weighing bottle (one weighing bottle+its lid+the sample) was precisely weighed, recorded as m2.
3. Each sample was placed in the “constant temperature and humidity dryer” for 24 h, and then the weight of each weighing bottle (one weighing bottle+its lid+the sample) was precisely weighed, recorded as m3.
4. The percentage of hygroscopicity weight increase of each sample was calculated (the formula was shown as follows), and it is defined as no or almost no hygroscopicity when the percentage of hygroscopicity weight increase is less than 0.2%. It is defined as slightly hygroscopicity when the percentage of hygroscopicity weight increase is equal or greater than 0.2%, but less than 2.0%. the percentage of weight increase=[(m3−m2)/(m2−m1)]×100%

[2] = accelerated stability test of polymorphs; assay type: physicochemical; details: accelerated test 40±2° C., 75%±5% RH, 6 months; for purity after accelerated test: compared to freshly prepared (0 Month)

Compound	hygroscopicity [1]	degradated impurity [2]	stability of crystal form [2]	purity after accelerated test [2]	percentage of weight increase [1]
Cl.Cl.[2H]C1([2H])CN(c2ccc(Nc3nccc(-c4ccc(C(=O)NCC#N)cc4)n3)cc2)CC([2H])([2H])O1 [polymorph I, N-(cyanomethyl)-4-(2-((4-(2′,2′,6′,6′-d4-morpholino)phenyl)amino)pyrimidin-4-yl)benzamide dihydrochloride]	slightly hygroscopicity (slightly hygroscopicity when the percentage of hygroscopicity weight increase is equal or greater than 0.2%, but less than 2.0%)	no obvious degradated impurity was observed	very stable	above 99%	
Cl.Cl.O.[2H]C1([2H])CN(c2ccc(Nc3nccc(-c4ccc(C(=O)NCC#N)cc4)n3)cc2)CC([2H])([2H])O1 [polymorph II, N-(cyanomethyl)-4-(2-((4-(2′,2′,6′,6′-d4-morpholino)phenyl)amino)pyrimidin-4-yl)benzamide dihydrochloride monohydrate]	slightly hygroscopicity (slightly hygroscopicity when the percentage of hygroscopicity weight increase is equal or greater than 0.2%, but less than 2.0%)	no obvious degradated impurity was observed	very stable	above 99%	0.24%
Cl.[2H]C1([2H])CN(c2ccc(Nc3nccc(-c4ccc(C(=O)NCC#N)cc4)n3)cc2)CC([2H])([2H])O1 [polymorph III, N-(cyanomethyl)-4-(2-((4-(2′,2′,6′,6′-d4-morpholino)phenyl)amino)pyrimidin-4-yl)benzamide monohydrochloride]		no obvious degradated impurity was observed	very stable	above 99%	
[2H]C1([2H])COCC([2H])([2H])N1c1ccc(Nc2nccc(-c3ccc(C(=O)NCC#N)cc3)n2)cc1 [polymorph V, N-(cyanomethyl)-4-(2-((4-(2′,2′,6′,6′-d4-morpholino)phenyl)amino)pyrimidin-4-yl)benzamide]		no obvious degradated impurity was observed	very stable	above 99%	
